Holding throughout (assay): inhibition of tumour cell growth, NCI panel, 48 h
Experiment [1] has as its system SW-620.
Experiment [2] concerns HT-29.
Experiment [3] concerns COLO 205.
Experiment [4] concerns SF-268.
Experiment [5] has as its system OVCAR-5.
Experiment [6] concerns SNB-19.
The subject of experiment [7] is SK-OV-3.
Experiment [8] concerns OVCAR-3.
Experiment [9] concerns SN12C.
Experiment [10] has as its system RXF 393.
The test system of experiment [11] is TK-10.
The subject of experiment [12] is CCRF-CEM.
The subject of experiment [13] is SF-539.
The test system of experiment [14] is MDA-N.
Experiment [15] has as its system UACC-62.
Experiment [16] deals with MOLT-4.
Experiment [17] concerns U-251.
In experiment [18] the test system is Malme-3M.
Experiment [19] has as its system KM12.
For experiment [20], the system named is HCT-116.

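Grown in 96-well plates, cells were treated for 48 hours with each compound at five concentrations. Insufficient inhibition: endpoint recorded as highest concentration tested. The concentration for 50% growth inhibition is given as GI50.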 Calls of active or inactive are those of the source. No stated cut-off is given here; in the data, active = GI50 up to about 1.1 µM and inactive = higher. Bounds are passed on as bounds.

Turning to `COCCOC(=O)c1c(C)[n+]([O-])c2cc(Cl)c(Cl)cc2[n+]1[O-]`, the GI50 is 20 µM (inactive) in [1]; 18.7 µM (inactive) in experiment [2]; 12.5 µM (inactive) in [3]; 14.2 µM (inactive) in experiment [4]; 16.7 µM (inactive) in [5]; 40.8 µM (inactive) in [6]. Besides, the GI50 is 17.9 µM (inactive) in experiment [7]; 13.4 µM (inactive) in [8]; 20 µM (inactive) in experiment [9]; 30.4 µM (inactive) in [10]; 23.2 µM (inactive) in [11]; 9.29 µM (inactive) in [12]. The GI50 in experiment [13] is 22.6 µM (inactive); in experiment [14] it was 23.2 µM (inactive); in [15] it was 14.8 µM (inactive); in [16], 13.1 µM (inactive); in [17] it was 9.82 µM (inactive); in [18], 18.5 µM (inactive). Besides, in experiment [19], the GI50 is 10.8 µM (inactive).
Regarding `Cc1c2cc[n+](CCN3CCCCC3)cc2c(C)c2c1[nH]c1ccc(O)cc12`, the GI50 in experiment [1] is 3.19 µM (inactive); in experiment [2], 8 µM (inactive); in [3], 1.66 µM (inactive); in experiment [4] it was 1.4 µM (inactive); in experiment [5], 10.5 µM (inactive); in experiment [6], 1.16 µM (inactive). In addition, the GI50 in [7] was 3.02 µM (inactive); in [8], 6.05 µM (inactive); in experiment [9] it was 0.401 µM (active); in experiment [10], 5.2 µM (inactive); in experiment [11], 15.1 µM (inactive); in experiment [12], 1.11 µM (active). In addition, the GI50 is 3.45 µM (inactive) in [13]; 12.1 µM (inactive) in experiment [14]; 2.58 µM (inactive) in [20]; 5.47 µM (inactive) in experiment [15]; 0.8 µM (active) in experiment [17]; 2.39 µM (inactive) in [18]. For the same compound, in experiment [19], the GI50 is 1.64 µM (inactive).
As to `N#Cc1c(O)c2ccccc2[nH]c1=O`, the GI50 in experiment [1], in experiment [2], in [3], in experiment [5], in experiment [6] and in experiment [7] was > 100 µM (inactive) in each case. Further, the GI50 in experiment [8], in [9], in experiment [10], in experiment [11], in experiment [12] and in experiment [13] was > 100 µM (inactive) throughout. Besides, the GI50 in experiment [14], in experiment [20], in experiment [15], in [16], in [17] and in [18] was > 100 µM (inactive) in each case. For the same compound, the GI50 in [19] was > 100 µM (inactive).
Take `CC1C(OS(=O)(=O)c2ccc3nc(S)sc3c2)CC2C3(C)CCC2(C(C)C(=O)O)C(O)C13` (centres undefined): the GI50 in experiment [2] is 17.5 µM (inactive); in experiment [3], 20.7 µM (inactive); in experiment [4], 27.4 µM (inactive); in experiment [5], 25.5 µM (inactive); in experiment [6], 54.1 µM (inactive); in [7], 40.7 µM (inactive). Moreover, the GI50 was 14.5 µM (inactive) in experiment [8]; 28 µM (inactive) in [9]; 21.7 µM (inactive) in experiment [10]; 44.5 µM (inactive) in experiment [11]; 3.85 µM (inactive) in [12]; 17.6 µM (inactive) in [13]. The GI50 is 22.4 µM (inactive) in experiment [14]; 13.6 µM (inactive) in [20]; 21.9 µM (inactive) in experiment [15]; 16.9 µM (inactive) in [16]; 16.2 µM (inactive) in experiment [17]; 27.2 µM (inactive) in experiment [18]. The GI50 in experiment [19] is 19.9 µM (inactive).
With `COC(=O)c1ccc2c(c1)CC1(C2)Cc2cc3c(c(C(=O)OC)c2C1)CCCC3` (centres undefined), the GI50 was > 100 µM (inactive) in experiment [1]; 55.7 µM (inactive) in experiment [2]; 49.4 µM (inactive) in [3]; > 100 µM (inactive) in [4]; > 100 µM (inactive) in experiment [5]; 41.7 µM (inactive) in experiment [7]. Further, the GI50 was 18.3 µM (inactive) in experiment [8]; 50.1 µM (inactive) in [9]; > 100 µM (inactive) in experiment [10]; 72.1 µM (inactive) in experiment [11]; 48.6 µM (inactive) in experiment [12]; > 100 µM (inactive) in experiment [13]. The GI50 in experiment [14] is 93.1 µM (inactive); in experiment [20], 44.6 µM (inactive); in experiment [15], 37.1 µM (inactive); in experiment [16], 42.7 µM (inactive); in [17], 61.7 µM (inactive); in experiment [18], > 100 µM (inactive). For the same compound, the GI50 in [19] was > 100 µM (inactive).
Turning to `Cc1ccc(C)n1-n1c(-c2ccccc2)n[nH]c1=O`, the GI50 in experiment [1], in experiment [2], in [3], in [4], in experiment [5] and in experiment [6] was > 100 µM (inactive) in each case. Further, the GI50 in experiment [7], in experiment [8], in experiment [9], in experiment [10], in [11] and in [12] was > 100 µM (inactive) each time. For the same compound, the GI50 in experiment [14] is 24.8 µM (inactive); in experiment [20] it was > 100 µM (inactive); in experiment [15] it was > 100 µM (inactive); in experiment [16], > 100 µM (inactive); in experiment [17] it was > 100 µM (inactive); in experiment [18], > 100 µM (inactive). In [19], the GI50 was 34.3 µM (inactive).
For the compound `O=c1[nH]c(=O)n(C2CC(O)C(CO)O2)c2nc3cc4ccccc4cc3nc12` (centres undefined), the GI50 was > 100 µM (inactive) in experiment [1]; > 100 µM (inactive) in [3]; 73.1 µM (inactive) in experiment [4]; > 100 µM (inactive) in experiment [5]; 14.5 µM (inactive) in [6]; > 100 µM (inactive) in [7]. Also, the GI50 in experiment [8] is > 100 µM (inactive); in experiment [9], > 100 µM (inactive); in experiment [10], 26.5 µM (inactive); in experiment [11] it was > 100 µM (inactive); in experiment [12] it was 36.6 µM (inactive); in experiment [13], > 100 µM (inactive). In addition, the GI50 in experiment [14] is > 100 µM (inactive); in [20], > 100 µM (inactive); in experiment [15], > 100 µM (inactive); in experiment [16], 61.7 µM (inactive); in experiment [17], 59.2 µM (inactive); in [18], > 100 µM (inactive). The GI50 in experiment [19] is > 100 µM (inactive).
As to `CC(C)(C)C1CCC2c3c([nH]c4ccccc34)C3C(=O)N(c4cc(Cl)ccc4Cl)C(=O)C3C2C1` (centres undefined), the GI50 in experiment [1] is 5.85 µM (inactive); in [2], > 100 µM (inactive); in [3], > 100 µM (inactive); in [5] it was > 100 µM (inactive); in [6], > 100 µM (inactive); in [7], > 100 µM (inactive). The GI50 in experiment [8], in experiment [9], in experiment [10], in experiment [11], in [12] and in [13] was > 100 µM (inactive) each time. The GI50 in [14] is > 100 µM (inactive); in experiment [20] it was > 100 µM (inactive); in experiment [15], > 100 µM (inactive); in experiment [16] it was > 100 µM (inactive); in experiment [17], > 10 µM (inactive); in [18] it was > 100 µM (inactive).
For the compound `COC(=O)CC1c2ccccc2N2C(=O)Cc3c([nH]c4ccccc34)C12` (centres undefined), the GI50 in experiment [1], in [2], in [3], in experiment [4], in [5] and in [6] was > 100 µM (inactive) each time. The GI50 in experiment [7], in [8], in experiment [9], in experiment [10], in experiment [11] and in experiment [12] was > 100 µM (inactive) each time. Also, the GI50 was > 100 µM (inactive) in experiment [14]; > 100 µM (inactive) in [20]; > 100 µM (inactive) in experiment [15]; > 100 µM (inactive) in experiment [16]; > 100 µM (inactive) in [17]; 66.5 µM (inactive) in experiment [18]. The GI50 in experiment [19] is > 100 µM (inactive).
As for `Cc1[nH]n(C2=NCCN2)c(=O)c1Cc1ccccc1`, the GI50 in [1], in [2], in experiment [3], in [4], in [5] and in experiment [6] was > 100 µM (inactive) each time. The GI50 in [7], in experiment [8], in experiment [10], in [11], in experiment [12] and in experiment [13] was > 100 µM (inactive) each time. For the same compound, the GI50 in experiment [14], in [20], in experiment [15], in experiment [16], in experiment [17] and in experiment [18] was > 100 µM (inactive) throughout. Moreover, the GI50 in experiment [19] is > 100 µM (inactive).

(Values after ChEMBL document CHEMBL1201862, “PubChem BioAssay data set” (2004).)
